From PubChem BioAssay (NCI)
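48-hour exposure; five concentrations; linearly interpolated endpoints. The concentration for full growth arrest is given as TGI.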

Key:
Assay in all cases: growth of human tumour cells (NCI), 48 h
786-0 renal = tested on: 786-0 renal
A498 renal = tested on: A498 renal
A549 NSCLC = tested on: A549 NSCLC
ACHN renal = tested on: ACHN renal
BT-549 breast = tested on: BT-549 breast
CAKI-1 renal = tested on: CAKI-1 renal
CCRF-CEM leukemia = tested on: CCRF-CEM leukemia
COLO 205 colon = tested on: COLO 205 colon
DU-145 prostate = tested on: DU-145 prostate
EKVX NSCLC = tested on: EKVX NSCLC
HCC-2998 colon = tested on: HCC-2998 colon
HCT-116 colon = tested on: HCT-116 colon
HCT-15 colon = tested on: HCT-15 colon
HL-60(TB) leukemia = tested on: HL-60(TB) leukemia
HOP-62 NSCLC = tested on: HOP-62 NSCLC
HOP-92 NSCLC = tested on: HOP-92 NSCLC
HS 578T breast = tested on: HS 578T breast
HT29 colon = tested on: HT29 colon
IGROV1 ovarian = tested on: IGROV1 ovarian
K-562 leukemia = tested on: K-562 leukemia
KM12 colon = tested on: KM12 colon
LOX IMVI melanoma = tested on: LOX IMVI melanoma
M14 melanoma = tested on: M14 melanoma
MALME-3M melanoma = tested on: MALME-3M melanoma
MCF7 breast = tested on: MCF7 breast
MDA-MB-231 breast = tested on: MDA-MB-231 breast
MDA-MB-435 = tested on: MDA-MB-435
MDA-N = tested on: MDA-N
MOLT-4 leukemia = tested on: MOLT-4 leukemia
NCI-H226 lung = tested on: NCI-H226 lung
NCI-H23 lung = tested on: NCI-H23 lung
NCI-H460 lung = tested on: NCI-H460 lung
NCI-H522 lung = tested on: NCI-H522 lung
NCI/ADR-RES ovarian = tested on: NCI/ADR-RES ovarian
OVCAR-3 ovarian = tested on: OVCAR-3 ovarian
OVCAR-4 ovarian = tested on: OVCAR-4 ovarian
OVCAR-5 ovarian = tested on: OVCAR-5 ovarian
OVCAR-8 ovarian = tested on: OVCAR-8 ovarian
PC-3 prostate = tested on: PC-3 prostate
RPMI-8226 leukemia = tested on: RPMI-8226 leukemia
RXF 393 renal = tested on: RXF 393 renal
SF-268 CNS = tested on: SF-268 CNS
SF-295 CNS = tested on: SF-295 CNS
SF-539 CNS = tested on: SF-539 CNS
SK-MEL-28 melanoma = tested on: SK-MEL-28 melanoma
SK-MEL-5 melanoma = tested on: SK-MEL-5 melanoma
SK-OV-3 ovarian = tested on: SK-OV-3 ovarian
SN12C renal = tested on: SN12C renal
SNB-19 CNS = tested on: SNB-19 CNS
SNB-75 CNS = tested on: SNB-75 CNS
SR leukemia = tested on: SR leukemia
SW-620 colon = tested on: SW-620 colon
T-47D breast = tested on: T-47D breast
TK-10 renal = tested on: TK-10 renal
U251 CNS = tested on: U251 CNS
UACC-257 melanoma = tested on: UACC-257 melanoma
UACC-62 melanoma = tested on: UACC-62 melanoma
UO-31 renal = tested on: UO-31 renal
SK-MEL-2 melanoma = tested on: SK-MEL-2 melanoma

For `CN(C)/C=C/c1nnnn1-c1ccc(I)cc1`, the TGI (786-0 renal) was over 100 µM, the TGI (A498 renal) was over 100 µM and the TGI (A549 NSCLC) was over 100 µM. For the same compound, the TGI (ACHN renal) was 63.1 µM, the TGI (BT-549 breast) was 92 µM and the TGI (CAKI-1 renal) was 50.6 µM. The TGI (CCRF-CEM leukemia) was 25.9 µM, the TGI (COLO 205 colon) was over 100 µM and the TGI (DU-145 prostate) was 74.5 µM. For the same compound, the TGI (EKVX NSCLC) was 51.3 µM, the TGI (HCC-2998 colon) was over 100 µM and the TGI (HCT-116 colon) was 23.5 µM. It also gave a TGI (HCT-15 colon) of 54.4 µM, a TGI (HL-60(TB) leukemia) of 25.7 µM and a TGI (HOP-62 NSCLC) of over 100 µM. The TGI (HOP-92 NSCLC) was 34.7 µM, the TGI (HS 578T breast) was 45.2 µM and the TGI (HT29 colon) was 59.2 µM. The TGI (IGROV1 ovarian) was 38 µM, the TGI (K-562 leukemia) was 44.5 µM and the TGI (KM12 colon) was 36.7 µM. For the same compound, the TGI (LOX IMVI melanoma) was 41.1 µM, the TGI (M14 melanoma) was 40.6 µM and the TGI (MALME-3M melanoma) was 44.7 µM. It also gave a TGI (MCF7 breast) of 65 µM, a TGI (MDA-MB-231 breast) of 40.9 µM and a TGI (MDA-MB-435) of 60.7 µM. For the same compound, the TGI (MDA-N) was 74.2 µM, the TGI (MOLT-4 leukemia) was 34.1 µM and the TGI (NCI-H226 lung) was 56.9 µM. For the same compound, the TGI (NCI-H23 lung) was 56.1 µM, the TGI (NCI-H460 lung) was over 100 µM and the TGI (NCI-H522 lung) was 68.8 µM. For the same compound, the TGI (NCI/ADR-RES ovarian) was 63.5 µM, the TGI (OVCAR-3 ovarian) was 54.5 µM and the TGI (OVCAR-4 ovarian) was 66 µM. For the same compound, the TGI (OVCAR-5 ovarian) was 56.4 µM, the TGI (OVCAR-8 ovarian) was 72.2 µM and the TGI (PC-3 prostate) was 46.2 µM. It also gave a TGI (RPMI-8226 leukemia) of 46.5 µM, a TGI (RXF 393 renal) of 59.6 µM and a TGI (SF-268 CNS) of 51 µM. The TGI (SF-295 CNS) was over 100 µM, the TGI (SF-539 CNS) was 42.5 µM and the TGI (SK-MEL-28 melanoma) was 65.7 µM. For the same compound, the TGI (SK-MEL-5 melanoma) was 33 µM, the TGI (SK-OV-3 ovarian) was 53.3 µM and the TGI (SN12C renal) was over 100 µM. The TGI (SNB-19 CNS) was 59.2 µM, the TGI (SNB-75 CNS) was 32.2 µM and the TGI (SR leukemia) was 41.6 µM. For the same compound, the TGI (SW-620 colon) was 50.6 µM, the TGI (T-47D breast) was 44 µM and the TGI (TK-10 renal) was 87.1 µM. It also gave a TGI (U251 CNS) of 34.9 µM, a TGI (UACC-257 melanoma) of 67.5 µM and a TGI (UACC-62 melanoma) of 31.1 µM. For the same compound, the TGI (UO-31 renal) was 39.1 µM.

`Cc1ccc(CCCCCOc2ccc(C3=NCCO3)cc2)s1` was tested, and the TGI (786-0 renal) was over 100 µM, the TGI (A498 renal) was 4.47 µM and the TGI (A549 NSCLC) was over 100 µM. The TGI (ACHN renal) was over 100 µM, the TGI (BT-549 breast) was over 100 µM and the TGI (CAKI-1 renal) was over 100 µM. It also gave a TGI (CCRF-CEM leukemia) of over 100 µM, a TGI (COLO 205 colon) of over 100 µM and a TGI (DU-145 prostate) of over 100 µM. The TGI (EKVX NSCLC) was over 100 µM, the TGI (HCC-2998 colon) was over 100 µM and the TGI (HCT-116 colon) was over 100 µM. The TGI (HCT-15 colon) was over 100 µM, the TGI (HL-60(TB) leukemia) was over 100 µM and the TGI (HOP-62 NSCLC) was over 100 µM. The TGI (HS 578T breast) was over 100 µM, the TGI (HT29 colon) was over 100 µM and the TGI (IGROV1 ovarian) was over 100 µM. It also gave a TGI (K-562 leukemia) of over 100 µM, a TGI (KM12 colon) of over 100 µM and a TGI (M14 melanoma) of over 100 µM. For the same compound, the TGI (MALME-3M melanoma) was over 100 µM, the TGI (MCF7 breast) was over 100 µM and the TGI (MDA-MB-231 breast) was over 100 µM. The TGI (MDA-MB-435) was over 100 µM, the TGI (MDA-N) was 62.6 µM and the TGI (MOLT-4 leukemia) was over 100 µM. For the same compound, the TGI (NCI-H226 lung) was over 100 µM, the TGI (NCI-H23 lung) was over 100 µM and the TGI (NCI-H460 lung) was over 100 µM. The TGI (NCI-H522 lung) was over 100 µM, the TGI (NCI/ADR-RES ovarian) was over 100 µM and the TGI (OVCAR-3 ovarian) was over 100 µM. The TGI (OVCAR-4 ovarian) was over 100 µM, the TGI (OVCAR-5 ovarian) was over 100 µM and the TGI (OVCAR-8 ovarian) was over 100 µM. For the same compound, the TGI (PC-3 prostate) was over 100 µM, the TGI (RPMI-8226 leukemia) was over 100 µM and the TGI (RXF 393 renal) was over 100 µM. The TGI (SF-268 CNS) was over 100 µM, the TGI (SF-295 CNS) was over 100 µM and the TGI (SK-MEL-2 melanoma) was over 100 µM. It also gave a TGI (SK-MEL-28 melanoma) of over 100 µM, a TGI (SK-MEL-5 melanoma) of over 100 µM and a TGI (SK-OV-3 ovarian) of over 100 µM. It also gave a TGI (SN12C renal) of over 100 µM, a TGI (SNB-19 CNS) of over 100 µM and a TGI (SNB-75 CNS) of over 100 µM. For the same compound, the TGI (SR leukemia) was over 100 µM, the TGI (SW-620 colon) was over 100 µM and the TGI (T-47D breast) was over 100 µM. It also gave a TGI (TK-10 renal) of over 100 µM, a TGI (U251 CNS) of over 100 µM and a TGI (UACC-257 melanoma) of over 100 µM. It also gave a TGI (UACC-62 melanoma) of over 100 µM and a TGI (UO-31 renal) of over 100 µM.
